Read-outs that look alike come from different tables or passages of the source.

The subject of assay [1] is A375 melanoma cells. To be noted: read-out: IC50 (µM) ± S.D. A375; 72 h, MTT test.
The subject of assay [2] is MCF-7 breast cancer cells. The note with it: read-out: IC50 (µM) ± S.D. MCF-7; 72 h, MTT test.
Assay [3] has as its system human cancer cell line panel. The note with it: read-out: average IC50; average over the six cancer cell lines, 72 h MTT.
Assay [4] relates to 2008 ovarian cancer cells. To be noted: read-out: IC50 (µM) ± D.S. 2008; 72 h, MTT test, cisplatin-sensitive cells.
Assay [5] has as its system BxPC3 pancreatic cancer cells. To be noted: read-out: IC50 (µM) ± S.D. BxPC3; 72 h, MTT test.
For assay [6], the system named is C13* cisplatin-resistant ovarian cancer cells.
Assay [7] has as its system A549 lung cancer cells. To be noted: read-out: IC50 (µM) ± S.D. A549; 72 h, MTT test.
For assay [8], the system named is A431 cervical carcinoma cells. To be noted: read-out: IC50 (µM) ± S.D. A431; 72 h, MTT test.
Assay [9] has as its system HCT-15 colon cancer cells. The note with it: for times more effective than cisplatin, HCT-15: HCT-15 cells, 72 h MTT, versus cisplatin.
For assay [10], the system named is A549 lung cancer cells. Kind of assay: cells. The note with it: Homo sapiens, A549, 72 h, read-out: IC50 (µM) ± S.D. A549.
The test system of assay [11] is HCT-15 colon cancer cells. Description: cells. The note with it: Homo sapiens, HCT-15, 72 h, read-out: IC50 (µM) ± S.D. HCT-15.
Assay [12] relates to A375 melanoma cells. Description: cells. The note with it: Homo sapiens, A-375, 72 h, read-out: IC50 (µM) ± S.D. A375.
Assay [13] has as its system MCF-7 breast cancer cells. Kind of assay: cells. To be noted: Homo sapiens, MCF7, 72 h, read-out: IC50 (µM) ± S.D. MCF-7.
Assay [14] has as its system BxPC3 pancreatic cancer cells. Description: cells. The note with it: Homo sapiens, BXPC-3, 72 h, read-out: IC50 (µM) ± S.D. BxPC3.
For assay [15], the system named is A431 cervical carcinoma cells. Description: cells. To be noted: Homo sapiens, A-431, 72 h, read-out: IC50 (µM) ± S.D. A431.
For assay [16], the system named is 2008 cells (cellular DNA fragmentation). The note with it: 6 h.
Protocol: About 4 × 10^4 2008 cells were seeded in 25 cm^2 flasks in growth medium (6 mL). After 24 h, cells were incubated for 3h with 2.5µM of tested compounds. Cells were washed twice with cold PBS, harvested, centrifuged, and DNA fragmentation was measured by the alkaline comet assay. Low melting point agarose, 300 μL (Trevigen Inc., Gaithersburg, MD, USA) was heated to 37 °C and combined with 2 × 10^5 cells per mL cell suspension. Each well of a 20-well CometSlide was filled with 30 μL of the cell/agarose suspension. The slides were placed in a 4 °C refrigerator in the dark for 15 min to solidify. Slides were then immersed in 50 mL of pre-chilled lysis solution containing Trizma base, Triton X-100, DMSO and left at 4 °C for 30 min to facilitate cell membrane and histone removal. After draining excess liquid, the slides were transferred to 50 mL of freshly prepared (same day) alkaline DNA unwinding solution, (200 mmol/L NaOH, 1 mmol/L EDTA, pH > 13) and incubated at room temperature in the dark for 20 min. After the unwinding step, electrophoresis was performed at 21 V for 30 min. Slides were then rinsed with distilled water and fixed 5 min in 70% ethanol. Slides were dried and stained 5 min at 4 °C with SYBR Green I (Trevigen, Inc.) diluted 1:10000 in 10 mmol/L Tris pH 7.5, 1 mmol/L EDTA, drained to remove excess staining solution and thoroughly dried at room temperature in the dark. Micrographs were taken with a Zeiss LSM-800 confocal microscope (Zeiss, Oberkochen, Germany).
Assay [17] deals with TrxR. The note with it: 2008 cells, 18 h, 2.5 µM.
Protocol: TrxR inhibition was also evaluated in 2008 cells treated for 18 h with equimolar concentrations (2.5 µM) of all phosphino silver(I) derivatives and of AgNO3.
The 2008 cells were incubated for 18 h with tested compounds. Subsequently, cells were washed twice with Phosphate Buffer Solution (PBS) and lysed. TrxR activity was tested by measuring NADPH-dependent reduction of DTNB and glutathione peroxidase (GPx) activity was followed at 340 nm.
The test system of assay [18] is caspase-9. The note with it: 2008 cells, IC50 concentration, 24 h.
Protocol: (§1) The 2008 cells (1 × 10^6) were treated for 24 h with the IC50 doses of tested compounds, harvested and homogenized in a lysis buffer [1% Triton X-100, 320 nM sucrose, 5 mM EDTA, 10 mM Tris–HCl and 2 mM DTT (1,4-dithio-DL-threitol) buffer (pH 7.6)]. Protein aliquots (100 μg) were stained at 37 °C for 60 min with fluorescent caspase-3 (N-Acetyl-Asp-Glu-Val-Asp-AMC, AMC = 7-amino-4-methylcoumarin) or caspase-9 (Ac-Leu-Glu-His-Asp-AMC) substrate (Sigma Co.). Substrate hydrolysis was measured after 60 min by monitoring the release of AMC using a spectrofluorometer (excitation at 370 nm, emission at 460 nm).
(§2) Effect of silver(I) compounds on caspase-3 and -9 activation. […] Data are the means of at least three independent experiments. Error bars indicate SD.
Assay [19] has as its system 2008 cells. The note with it: IC50 concentrations, 24 or 48 h.
Protocol: In particular, 2008 cells were treated for 24 or 48 h with IC50 concentrations of tested Ag(I) complexes, and the percentage of cells with hypopolarized mitochondrial membrane potential was determined fluorimetrically by means of the Mito-ID® Membrane Potential Kit.
The ΔΨ was assayed using the Mito-ID® Membrane Potential Kit according to the manufacturer’s instructions (Enzo Life Sciences, Farmingdale, NY). Briefly, 2008 cells (8 × 10^3 per well) were seeded in 96-well plates; after 24 h, cells were washed with PBS and loaded with Mito-ID Detection Reagent for 30 min at 37 °C in the dark. Afterwards, cells were incubated with increasing concentrations of tested complexes. Fluorescence intensity was estimated using a plate reader (Fluoroskan Ascent FL, Labsystems, Finland) at 490 (excitation) and 590 nm (emission). Carbonyl cyanide m-chlorophenyl hydrazone (CCCP, 4 μM), a chemical inhibitor of the oxidative phosphorylation, was used as positive control.
2008 cells were treated for 24 h or 48 h with IC50 concentrations of tested complexes or CCCP (3 μM). The percentage of cells with hypopolarized mitochondrial membrane potential was determined by Mito-ID® Membrane Potential Kit. Data are the means of three independent experiments. Error bars indicate S.D.
In assay [20] the test system is caspase-3. The note with it: 2008 cells, IC50, 24 or 48 h.
Protocol: as §1, §2
Assay [21] has as its system 2008 cells. The note with it: 24 h or 48 h.
Protocol: The 2008 cells (2 × 10^5) were seeded in a six-well plate in growth medium (4 mL). After 24 h, cells were incubated for 24 h with increasing concentrations of tested compounds. Subsequently, the thiol content was measured as previously described [43].
(A) Sulfhydryl content in 2008-treated cancer cells incubated for 24 h or 48 h with tested silver(I) compounds. The sulfhydryl group amount was determined by the DTNB assay.
Assay [22] concerns 2008 cells. To be noted: 48 h, IC50 concentrations.
Protocol: About 10^6 2008 cells were seeded in 24-well plates and, after 24 h incubation, were treated with the tested compounds and incubated for additional 24 h. Cells were then washed with cold PBS, harvested and directly fixed with 1.5% glutaraldehyde buffer with 0.2 M sodium cacodylate, pH 7.4. After washing with buffer and postfixation with 1% OsO4 in 0.2 M cacodylate buffer, specimens were dehydrated and embedded in epoxy resin (Epon Araldite). Sagittal serial sections (1 μm) were counterstained with toluidine blue; thin sections (90 nm) were given contrast by staining with uranyl acetate and lead citrate. Micrographs were taken with a Hitachi H-600 electron microscope (Hitachi, Tokyo, Japan) operating at 75 kV.
For assay [23], the system named is 2008 cells. To be noted: IC50 of compounds.
Protocol: The production of ROS was measured in 2008 cells (10^4 per well) grown for 24 h in a 96-well plate in RPMI medium without phenol red (Sigma Chemical Co.). Cells were then washed with PBS and loaded with 10 μM 5-(and-6)-chloromethyl-2′,7′-dichlorodihydrofluorescein diacetate acetyl ester (CM–H2DCFDA) (Molecular Probes-Invitrogen, Eugene, OR) for 25 min, in the dark. Afterwards, cells were washed with PBS and incubated with increasing concentrations of tested compounds. Fluorescence increase was estimated utilizing the wavelengths of 485 nm (excitation) and 527 nm (emission) in a Fluoroskan Ascent FL (Labsystems, Finland) plate reader.
Error bars indicate S.D. (B) effect of silver(I) compounds on hydrogen peroxide formation in 2008 cells. 2008 cells were pre-incubated in PBS/10 mM glucose medium for 20 min at 37 °C in presence of 10 µM CM-DCFDA and then treated with IC50 of silver(I) compounds.
The test system of assay [24] is CT-DNA.
Protocol: From the observed spectra, KSV was calculated according to the classical Stern–Volmer equation (Figure S16B).
The UV–Vis absorption spectroscopic studies and the DNA binding experiments were performed at
Experiments were performed by maintaining a fixed CT-DNA concentration (30
Sample solutions were scanned in the range
200−500 nm on a computer-controlled Varian Coulter DU 800 spectrophotometer.
EB–DNA competition experiments
The ethidium bromide (EB) displacement experiments were performed by titration with aliquots of
tested compounds of a Tris buffer solution containing 10 μM DNA (8.0–15 kbp) and 0.33 μM EB
(saturated binding levels). The fluorescence spectrum of the solution was obtained by exciting at 520
nm and measuring the emission spectra at 587 nm.
determined from the slope of the diagram F0/F versus r.
The target in assay [25] is human TrxR1 (Homo sapiens, UniProt Q16881). To be noted: isolated human TrxR1.
Sequence of human TrxR1 (Q16881 151-649 limits assumed): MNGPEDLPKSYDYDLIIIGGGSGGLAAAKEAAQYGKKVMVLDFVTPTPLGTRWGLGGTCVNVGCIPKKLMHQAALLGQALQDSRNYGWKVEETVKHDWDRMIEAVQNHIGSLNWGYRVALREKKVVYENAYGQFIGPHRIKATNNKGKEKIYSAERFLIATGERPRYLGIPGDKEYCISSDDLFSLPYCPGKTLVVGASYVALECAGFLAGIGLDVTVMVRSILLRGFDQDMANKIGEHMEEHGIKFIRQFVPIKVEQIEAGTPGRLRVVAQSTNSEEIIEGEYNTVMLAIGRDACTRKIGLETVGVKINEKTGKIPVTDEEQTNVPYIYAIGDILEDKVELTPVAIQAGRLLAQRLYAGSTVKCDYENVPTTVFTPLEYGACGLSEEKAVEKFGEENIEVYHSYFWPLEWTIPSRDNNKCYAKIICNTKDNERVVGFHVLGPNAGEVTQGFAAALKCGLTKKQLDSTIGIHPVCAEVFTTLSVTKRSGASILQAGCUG

Sequence of caspase-9 (P55211 whole entry): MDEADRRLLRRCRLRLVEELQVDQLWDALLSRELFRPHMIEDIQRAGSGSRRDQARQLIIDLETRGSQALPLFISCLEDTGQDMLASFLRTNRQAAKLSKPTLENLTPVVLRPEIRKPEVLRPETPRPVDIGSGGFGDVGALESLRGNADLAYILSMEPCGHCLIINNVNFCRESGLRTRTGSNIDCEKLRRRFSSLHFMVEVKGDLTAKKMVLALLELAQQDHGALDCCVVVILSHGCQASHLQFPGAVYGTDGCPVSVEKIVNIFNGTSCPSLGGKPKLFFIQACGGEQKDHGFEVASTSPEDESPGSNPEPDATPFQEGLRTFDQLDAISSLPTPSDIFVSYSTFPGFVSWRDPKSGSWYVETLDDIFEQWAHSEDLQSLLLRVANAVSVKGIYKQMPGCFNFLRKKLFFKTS

For the molecule Cisplatin, the IC50 in assay [1] came out at 4 ± 1 µM; in [2] it was 7.6 ± 3 µM; in [3], 7.9 µM; in assay [4], 2.3 ± 1.1 µM; in assay [5] it was 10.2 ± 1.7 µM; in [6] (read-out: IC50 (µM) ± D.S. C13*, 72 h, MTT test, cisplatin-resistant cells), 21.5 ± 3 µM. The IC50 in assay [7] came to 8.4 ± 0.9 µM; in assay [8] it was 2.1 ± 0.4 µM; in assay [9] (read-out: IC50 (µM) ± S.D. HCT-15, 72 h, MTT test), 15.5 ± 2.5 µM. In [6] (RF = IC50 resistant/IC50 parental cell lines (C13*/2008)), the RF was found to be 9.5.

On to `C1N2CN3CN1CP(C2)C3` [PTA, 1,3,5-triaza-7-phosphaadamantane], for which the IC50 in [10], in assay [11], in assay [12], in assay [13], in [14] and in assay [15] was greater than 100 µM in each case.

Take `c1ccc(P(c2ccccc2)c2ccccc2)cc1` [PPh3, triphenylphosphine]: the IC50 in assay [10] is 30.1 ± 2.1 µM; in assay [11] it was 54.1 ± 4.2 µM; in [12], 52.3 ± 2.5 µM; in assay [13] it was 34.2 ± 3.4 µM; in assay [14], 62.2 ± 2.2 µM; in assay [15], 47.5 ± 1.1 µM. Besides, the “DNA damage in comet assay, in words” value in assay [16] was “scarcely effective in increasing comet tail lengths”.

Consider [Ag(PCN)2]BF4 [Compound 9], for which the “reduction of total cellular TrxR activity” value (“reduction” below) in [17] is listed as “about 70%”. Moreover, the “times more effective than cisplatin, HCT-15” value in assay [9] is listed as “roughly 4.4 fold”.

For `N#CCCP(CCC#N)CCC#N` [PCN, tris(cyanoethyl)phosphine], the IC50 in assay [10], in assay [11], in [12], in assay [13], in assay [14] and in assay [15] was greater than 100 µM each time.

As for [Ag(PPh3)4]BF4 [Compound 10], the “DNA damage in comet assay, in words” value in [16] was “barely effective in provoking DNA damage”. The “enhancement in caspase-9 activity compared to control cells” value in [18] is 2.6 fold. Further, the “cells with hypopolarized mitochondrial membrane potential” value in assay [19] was “increase in the percentage of hypopolarized cells similar to that induced by reference compound carbonyl cyanide-m-chlorophenylhydrazone (CCCP)”. Further, the caspase-3 activation entry in assay [20] was “time-dependent activation of caspase-3”. In assay [17], the “reduction” value is on record as “about 75%”. Besides, the cellular sulfhydryl content result in assay [21] is on record as “lowest levels of cellular sulfhydryl groups”. Moreover, in assay [22], the “mitochondrial morphology by TEM” value is “mitochondria with disrupted cristae and a significant increase in volume (swelling)”. Moreover, the “basal ROS / hydrogen peroxide production” value in assay [23] is on record as “increase in basal hydrogen peroxide formation rather similar to that obtained with antimycin”. For the same molecule, the “modification of DNA absorption bands” value in assay [24] was “no significant modifications in DNA properties”. The “times more effective than cisplatin, HCT-15” value in assay [9] is listed as “roughly 4.4 fold”.

For `CC(=O)N1CN2CN(C(C)=O)CP(C2)C1` [DAPTA, 3,7-diacetyl-1,3,7-triaza-5-phosphabicyclo [3.3.1]nonane], the IC50 in assay [10] was greater than 100 µM; in assay [11], 67.1 ± 3.1 µM; in [12], greater than 100 µM; in assay [13], 85.3 ± 4 µM; in assay [14], 89.5 ± 4.1 µM; in [15], greater than 100 µM.

Turning to [HB(pz)3]Ag(PPh3) [Compound 5], the “increase of well-formed comets” value in assay [16] (IC50 dose) is reported as “about 69%”. The “enhancement in caspase-9 activity compared to control cells” value in assay [18] amounted to 3.3 fold. In [19], the “cells with hypopolarized mitochondrial membrane potential” value is listed as “increase in the percentage of hypopolarized cells similar to that induced by reference compound carbonyl cyanide-m-chlorophenylhydrazone (CCCP)”. In addition, the caspase-3 activation entry in assay [20] is listed as “time-dependent activation of caspase-3”. Also, the “reduction” value in [17] was “about 75%”. Besides, the cellular sulfhydryl content entry in assay [21] is listed as “lowest levels of cellular sulfhydryl groups”. Moreover, in assay [22], the “mitochondrial morphology by TEM” value was “mitochondria with disrupted cristae and a significant increase in volume (swelling)”. In addition, the “basal ROS / hydrogen peroxide production” value in assay [23] is reported as “increase in basal hydrogen peroxide formation rather similar to that obtained with antimycin”. In [24], the “modification of DNA absorption bands” value was “slight hyperchromic effect at 263 nm”. For the same molecule, in [9], the “times more effective than cisplatin, HCT-15” value was “about 7 fold”.

For AgNO3, the “TrxR1 inhibition, in words” value in assay [25] is recorded as “effective in inhibiting the redox enzyme activity at nanomolar level”. Moreover, the “reduction” value in assay [17] came out at 12%.

`O=S1(=O)N2CN3CN1CP(C3)C2` [PTA-SO2]: the IC50 is greater than 100 µM in assay [10]; greater than 100 µM in assay [11]; greater than 100 µM in [12]; 69.5 ± 3.4 µM in assay [13]; greater than 100 µM in assay [14]; 56 ± 3.5 µM in [15].

For the origin of these results see paper PMC7700221, “Antiproliferative Homoleptic and Heteroleptic Phosphino Silver(I) Complexes: Effect of Ligand Combination on Their Biological Mechanism of Action” (Molecules, 2020).
